The term IC50 denotes the point on the concentration scale where inhibition reaches its midpoint.

This test deals with human HPK1 (MAP4K1) (Homo sapiens (Human), UniProt Q92918). Nature of the test: HPK1 IC50 Assay. Format: biochemical. To be noted: recombinant HPK1 kinase domain 0.15 nM, synthetic peptide substrate STK S1, 3 hours at 25° C., time-resolved fluorescence energy transfer; geometric mean of multiple experiments. How it is done: The enzymatic activity of human HPK1 (MAP4K1) was monitored in a biochemical assay in the presence or absence of compounds and using a synthetic peptide substrate. An increase in phosphorylation of the peptide by HPK1 was indicative of its kinase activity.
Recombinant HPK1 kinase domain produced via baculovirus infection of insect cells was obtained from Proteros (Proteros Biostructures #PR-0322) and was pre-activated in the presence of 2 mM ATP (Sigma-Aldrich, cat #GE27-2056-01) and 2 mM magnesium chloride for 16 hours at 4° C. The protein reaction mixture was then loaded to a desalting column (Thermo Fisher Scientific, Cat #89889) to remove excess ATP. HPK1 was eluted with buffer containing 20 mM Tris (2-Amino-2-(hydroxymethyl)propane-1,3-diol) pH 8.0, 150 mM NaCl, 2 mM dithiothreitol and 5% glycerol, and was frozen at −80° C. for later use. HPK1 dual phosphorylation was confirmed by mass spectrometry.
Ten nanoliters of test compounds dissolved in DMSO at various concentrations were dispensed into a 384-well ProxiPlate (PerkinElmer #6008289). Five microliters of a solution of recombinant HPK1 diluted in HPK1 kinase assay buffer (50 mM BES [N,N-Bis(2-hydroxyethyl)-2-aminoethanesulfonic acid], pH 7.0; 10 mM magnesium chloride; 0.01% Triton X-100; 1 mM dithiothreitol; 0.01% bovine serum albumin; 0.1 mM sodium orthovanadate) was added to the compound-containing plate and was incubated for 15 minutes at 25° C. Five microliters of a mixture of ATP (Sigma-Aldrich #A6559) and peptide substrate STK Si (Cisbio #61ST1BLC) diluted in HPK1 kinase assay buffer was then added to start the reaction. Final concentrations were 0.15 nM for HPK1, […], and 1 […]. The reaction mixture was incubated at 25° C. for 3 hours and was stopped with the addition of 10 μl of an EDTA (Ethylenediaminetetraacetic acid)-containing detection buffer (Cisbio #62SDBRDF) supplemented with Europium cryptate-labeled anti-phospho-serine/threonine antibodies (Cisbio #62ST1PEJ) and XL665-labeled streptavidin (Cisbio #610SAXLG). The mixture was incubated for 16 hours at room temperature and peptide phosphorylation was measured by time-resolved fluorescence energy transfer (665 nm/620 nm) on an Envision plate reader (PerkinElmer).
Data in Table 1 were normalized based on positive (staurosporine) and negative (DMSO) controls. Least squares curve fittings were performed using a four-parameter variable slope nonlinear regression model. IC50 is defined as the concentration of compound required to inhibit 50% of maximum phosphorylation. IC50 values from multiple experiments were averaged by geometric mean and the standard deviation was calculated.

Sequence of human HPK1 (MAP4K1) (Q92918 17-274): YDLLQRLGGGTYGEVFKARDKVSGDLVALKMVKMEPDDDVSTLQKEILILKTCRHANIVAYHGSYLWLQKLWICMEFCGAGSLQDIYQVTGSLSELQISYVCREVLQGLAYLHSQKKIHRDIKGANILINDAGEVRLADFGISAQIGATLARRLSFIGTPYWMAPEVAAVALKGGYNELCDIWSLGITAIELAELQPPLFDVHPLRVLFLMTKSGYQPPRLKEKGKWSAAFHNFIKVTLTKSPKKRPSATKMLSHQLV

With `Cc1c(-c2cc3c(cc2F)NC(=O)/C3=C\c2cc3ncccc3[nH]2)cnc2c1NCCO2` [Compound C44, (Z)-3-((1H-pyrrolo[3,2-b]pyridin-2-yl)methylene)-6-fluoro-5-(8-methyl-2,3-dihydro-1H-pyrido[2,3-b][1,4]oxazin-7-yl)indolin-2-one], the IC50 is 0.05 nM.

Turning to `Cc1c(-c2cc(F)c3c(c2)/C(=C/c2cc4ccncc4[nH]2)C(=O)N3)cnc2c1NCCO2` [Compound C45, (Z)-3-((1H-pyrrolo[2,3-c]pyridin-2-yl)methylene)-7-fluoro-5-(8-methyl-2,3-dihydro-1H-pyrido[2,3-b][1,4]oxazin-7-yl)indolin-2-one], the IC50 was 0.17 nM.

On to `Cc1c(-c2cc(F)c3c(c2)/C(=C/c2cc4ncccc4[nH]2)C(=O)N3)cnc2c1NCCO2` [Compound C46, (Z)-3-((1H-pyrrolo[3,2-b]pyridin-2-yl)methylene)-7-fluoro-5-(8-methyl-2,3-dihydro-1H-pyrido[2,3-b][1,4]oxazin-7-yl)indolin-2-one], for which the IC50 was 0.05 nM.

Regarding `Cc1c(-c2cnc3c(c2)/C(=C/c2cc4cnccc4[nH]2)C(=O)N3)cnc2c1NCCO2` [Compound C47, (Z)-3-((1H-pyrrolo[3,2-c]pyridin-2-yl)methylene)-5-(8-methyl-2,3-dihydro-1H-pyrido[2,3-b][1,4]oxazin-7-yl)-1,3-dihydro-2H-pyrrolo[2,3-b]pyridin-2-one], the IC50 was 1.13 nM.

As for `Cc1c(-c2cc3c(cc2Cl)NC(=O)/C3=C\c2cc3cnccc3[nH]2)cnc2c1NCCO2` [Compound C48, (Z)-3-((1H-pyrrolo[3,2-c]pyridin-2-yl)methylene)-6-chloro-5-(8-methyl-2,3-dihydro-1H-pyrido[2,3-b][1,4]oxazin-7-yl)indolin-2-one], the IC50 turned out to be 0.16 nM.

Take `Cc1c(-c2cc3c(cc2F)NC(=O)/C3=C\c2cc3cnccc3[nH]2)cnc2c1NCCO2` [Compound C49, (Z)-3-((1H-pyrrolo[3,2-c]pyridin-2-yl)methylene)-6-fluoro-5-(8-methyl-2,3-dihydro-1H-pyrido[2,3-b][1,4]oxazin-7-yl)indolin-2-one]: the IC50 was found to be 0.16 nM.

For the compound `Cc1c(-c2cc3c(cc2Cl)NC(=O)/C3=C\c2cc3ccccc3[nH]2)cnc2c1NCCO2` [Compound C50, (Z)-3-((1H-indol-2-yl)methylene)-6-chloro-5-(8-methyl-2,3-dihydro-1H-pyrido[2,3-b][1,4]oxazin-7-yl)indolin-2-one], the IC50 came to 0.19 nM.

Turning to `Cc1c(-c2cc3c(cc2F)NC(=O)/C3=C\c2cc3ccccc3[nH]2)cnc2c1NCCO2` [Compound C51, (Z)-3-((1H-indol-2-yl)methylene)-6-fluoro-5-(8-methyl-2,3-dihydro-1H-pyrido[2,3-b][1,4]oxazin-7-yl)indolin-2-one], the IC50 worked out at 0.16 nM.

With `Cc1c(-c2cc(F)c3c(c2)/C(=C/c2cc4ccccc4[nH]2)C(=O)N3)cnc2c1NCCO2` [Compound C53, (Z)-3-((1H-indol-2-yl)methylene)-7-fluoro-5-(8-methyl-2,3-dihydro-1H-pyrido[2,3-b][1,4]oxazin-7-yl)indolin-2-one], the IC50 was determined as 0.16 nM.

As for `Cc1c(-c2cc(F)c3c(c2C)/C(=C/c2cc4cnccc4[nH]2)C(=O)N3)cnc2c1NCCO2` [Compound C54, (Z)-3-((1H-pyrrolo[3,2-c]pyridin-2-yl)methylene)-7-fluoro-4-methyl-5-(8-methyl-2,3-dihydro-1H-pyrido[2,3-b][1,4]oxazin-7-yl)indolin-2-one], the IC50 worked out at 0.27 nM.

As for `Cc1c(-c2cnc3c(c2)/C(=C/c2cc4ccccc4[nH]2)C(=O)N3)cnc2c1NCCO2` [Compound C55, (Z)-3-((1H-indol-2-yl)methylene)-5-(8-methyl-2,3-dihydro-1H-pyrido[2,3-b][1,4]oxazin-7-yl)-1,3-dihydro-2H-pyrrolo[2,3-b]pyridin-2-one], the IC50 came to 1.24 nM.

As for `Cc1c(-c2cc(F)c3c(c2C)/C(=C/c2cc4ccccc4[nH]2)C(=O)N3)cnc2c1NCCO2` [Compound C56, (Z)-3-((1H-indol-2-yl)methylene)-7-fluoro-4-methyl-5-(8-methyl-2,3-dihydro-1H-pyrido[2,3-b][1,4]oxazin-7-yl)indolin-2-one], the IC50 is 0.51 nM.

Turning to `Cc1c(-c2ccc3c(c2)/C(=C/c2cc4ncccc4[nH]2)C(=O)N3)cnc2c1NCCO2` [Compound C57, (Z)-3-((1H-pyrrolo[3,2-b]pyridin-2-yl)methylene)-5-(8-methyl-2,3-dihydro-1H-pyrido[2,3-b][1,4]oxazin-7-yl)indolin-2-one], the IC50 worked out at 0.05 nM.

Turning to `Cc1c(-c2ccc3c(c2)/C(=C/c2cc4ccncc4[nH]2)C(=O)N3)cnc2c1NCCO2` [Compound C58, (Z)-3-((1H-pyrrolo[2,3-c]pyridin-2-yl)methylene)-5-(8-methyl-2,3-dihydro-1H-pyrido[2,3-b][1,4]oxazin-7-yl)indolin-2-one], the IC50 worked out at 0.11 nM.

As for `Cc1c(-c2ccc3c(c2)/C(=C/c2nc4ccccc4[nH]2)C(=O)N3)cnc2c1NCCO2` [Compound C59, (Z)-3-((1H-benzo[d]imidazol-2-yl)methylene)-5-(8-methyl-2,3-dihydro-1H-pyrido[2,3-b][1,4]oxazin-7-yl)indolin-2-one], the IC50 stood at 0.28 nM.

For the compound `Cc1c(-c2ccc3c(c2)/C(=C/c2cc4cnccc4[nH]2)C(=O)N3)cnc2c1NCCO2` [Compound C60, (Z)-3-((1H-pyrrolo[3,2-c]pyridin-2-yl)methylene)-5-(8-methyl-2,3-dihydro-1H-pyrido[2,3-b][1,4]oxazin-7-yl)indolin-2-one], the IC50 is 0.06 nM.

For `Cc1c(-c2ccc3c(c2)/C(=C/c2cc4cccnc4[nH]2)C(=O)N3)cnc2c1NCCO2` [Compound C61, (Z)-3-((1H-pyrrolo[2,3-b]pyridin-2-yl)methylene)-5-(8-methyl-2,3-dihydro-1H-pyrido[2,3-b][1,4]oxazin-7-yl)indolin-2-one], the IC50 was 1.1 nM.

For `Cc1c(-c2ccc3c(c2)/C(=C/c2cc4ccccc4[nH]2)C(=O)N3)cnc2c1NCCO2` [Compound C62, (Z)-3-((1H-indol-2-yl)methylene)-5-(8-methyl-2,3-dihydro-1H-pyrido[2,3-b][1,4]oxazin-7-yl)indolin-2-one], the IC50 came out at 0.05 nM.

For the compound `Cc1c(-c2cc(F)c3c(c2C)/C(=C/c2cc4ccncc4[nH]2)C(=O)N3)cnc2c1NCCO2` [Compound C63, (Z)-3-((1H-pyrrolo[2,3-c]pyridin-2-yl)methylene)-7-fluoro-4-methyl-5-(8-methyl-2,3-dihydro-1H-pyrido[2,3-b][1,4]oxazin-7-yl)indolin-2-one], the IC50 was found to be 0.41 nM.

With `Cc1c(-c2cc(F)c3c(c2C)/C(=C/c2cc4ncccc4[nH]2)C(=O)N3)cnc2c1NCCO2` [Compound C64, (Z)-3-((1H-pyrrolo[3,2-b]pyridin-2-yl)methylene)-7-fluoro-4-methyl-5-(8-methyl-2,3-dihydro-1H-pyrido[2,3-b][1,4]oxazin-7-yl)indolin-2-one], the IC50 was 0.31 nM.

Consider `Cc1c(-c2cc(F)c3c(c2C)/C(=C/c2cn[nH]c2)C(=O)N3)cnc2c1NCCO2` [Compound C65, (Z)-3-((1H-pyrazol-4-yl)methylene)-7-fluoro-4-methyl-5-(8-methyl-2,3-dihydro-1H-pyrido[2,3-b][1,4]oxazin-7-yl)indolin-2-one], for which the IC50 was 1.03 nM.

Turning to `Cc1c(-c2cc(Cl)c3c(c2)/C(=C/c2cn[nH]c2)C(=O)N3)cnc2c1NCCO2` [Compound C66, (Z)-3-((1H-pyrazol-4-yl)methylene)-7-chloro-5-(8-methyl-2,3-dihydro-1H-pyrido[2,3-b][1,4]oxazin-7-yl)indolin-2-one], the IC50 was 6.9 nM.

`Cc1cc(-c2cnc3c(c2C)NCCO3)cc2c1NC(=O)/C2=C\c1cn[nH]c1` [Compound C67, (Z)-3-((1H-pyrazol-4-yl)methylene)-7-methyl-5-(8-methyl-2,3-dihydro-1H-pyrido[2,3-b][1,4]oxazin-7-yl)indolin-2-one]: the IC50 stood at 4.33 nM.

In the case of `Cc1n[nH]cc1/C=C1\C(=O)Nc2ccc(-c3cnc4c(c3C)NCCO4)cc21` [Compound C68, (Z)-3-((3-methyl-H-pyrazol-4-yl)methylene)-5-(8-methyl-2,3-dihydro-1H-pyrido[2,3-b][1,4]oxazin-7-yl)indolin-2-one], the IC50 came out at 0.32 nM.

For the compound `Cc1c(-c2ccc3c(c2)/C(=C/c2cn[nH]c2)C(=O)N3)cnc2c1NCCO2` [Compound C69, (Z)-3-((1H-pyrazol-4-yl)methylene)-5-(8-methyl-2,3-dihydro-1H-pyrido[2,3-b][1,4]oxazin-7-yl)indolin-2-one], the IC50 is 0.26 nM.

Values taken from US11453681B2, “Substituted eneoxindoles and uses thereof” (Gilead Sciences, Inc., priority 2019, dated 2022).
